# Measured values reported in patent US20250302862A1, “SMALL RNA DRUG FOR INHIBITING ACTIVITY OF CANCER CELLS” (Institute of Basic Medical Sciences Chinese Academy of …, priority 2022, published 2025).
# Key:
# [1] = system: primary lung cancer Kras^LSL-G12Dp53^fl/fl (KP) mouse model; experiment: Survival of mice with primary lung cancer; format: in vivo; settings: 10 nmol sRNA in sphingosine(d18:1) delivery system daily by gavage until death, vs NC group
# Source text: (§1) The mouse model of primary lung cancer was Kras^LSL-G12Dp53^fl/fl (KP).
# (§2) Mice were weighed and assigned to the negative control group (NC group) and HQi-sRNA-2 group randomly. The NC group was the negative control, in which a sphingosine(d18:1)-NC-sRNA herbal medicine delivery system was constructed from NC-sRNA. The HQi-sRNA-2 group was the experimental group, in which a sphingosine(d18:1)-HQi-sRNA-2 herbal medicine delivery system was constructed from HQi-sRNA-2 and sphingosine(d18:1).
# (§3) The herbal medicine delivery system was constructed by heating and mixing 10 nmol of sRNA, 100 ug of sphingosine(d18:1) and 300 ul of sterile enzyme-free water in a water bath at 90° C. for 15 minutes.
# Each mouse with a uniform body weight was dosed by gavage. Each mouse was given 10 nmol of HQi-sRNA-2 mimic daily by gavage until death of the mouse.
# The survival time of each mouse was recorded, the survival curve was plotted, and statistical analysis was performed.
# (§4) Mice were weighed and assigned to the negative control group (NC group), MDM-sRNA-39 group and MDM-sRNA-163 group randomly. The NC group was the negative control, in which a sphingosine(d18:1)-NC-sRNA herbal medicine delivery system was constructed from NC-sRNA. The MDM-sRNA-39 group was an experimental group, in which a sphingosine(d18:1)-MDM-sRNA-39 herbal medicine delivery system was constructed from MDM-sRNA-39. The MDM-sRNA-163 group was an experimental group, in which a sphingosine(d18:1)-MDM-sRNA-163 herbal medicine delivery system was constructed from MDM-sRNA-163.
# H460 cells = experiment: Cell invasion (Matrigel Transwell); format: cell-based, human; settings: 100 nmol/L, 48 h
# Protocol: Matrigel (basement membrane matrix) was thawed on crushed ice one night before and diluted with serum-free medium to a final concentration of 200-300 ug/mL. 100 uL of the diluted Matrigel was added to each upper chamber, let stand at 37° C. for 30 min, and the supernatant was aspirated. H460 cells with a cell density of more than 90% in 10 cm^2 dishes were digested and resuspended with 1 mL of serum-free medium and counted. 100,000 cells (100 uL) were plated in the upper chamber, and complete medium with 10% FBS was added to the lower chamber of each chamber. Transfection was performed after 12 h, and the groups (3 wells per group) were divided as follows: • blank control group: 20 uL of opti-MEM • negative control group (NC group) and experimental group: • A. 10 uL of opti-MEM and 0.2 uL of iMax were mixed well for 5 min • B. 10 uL of opti-MEM and 0.5 uL of small RNA (final concentration 100 nmol/L) were mixed well • C. solution A and solution B were mixed well and let stand for 15 min, and then was added to each well at a 20 uL system • Note: 100 uL of nuclease-free water was added to 2 nmol of small RNA dry powder for dissolution at a storage concentration of 20 umol/L
# After 48 h, the medium in upper and lower chambers was discarded. The cells were fixed with paraformaldehyde at room temperature for 15 min, stained with 0.1% crystal violet at room temperature for 15 min, and rinsed with PBS. The cells in the upper chamber were gently wiped off with cotton swabs, and the chamber was dried. A Leica inverted microscope DMi8 was turned on, the 5× objective lens was selected, the parameters were adjusted and the white balance was performed following the manual. Each chamber was photographed, followed by counting and statistic processing.
# 1) Matrigel basement membrane matrix was thawed on crushed ice one night before and diluted with serum-free medium to a final concentration of 200-300 ug/mL. […] H460 cells with a cell density of more than 90% in 10 cm^2 dishes were digested and resuspended with 1 mL of serum-free medium and counted. […]
# [2] = system: primary lung cancer Kras^LSL-G12Dp53^fl/fl (KP) mouse model; experiment: Tumor burden of mice with primary lung cancer (HE lung sections); format: in vivo; settings: 10 nmol daily by gavage for one month, sphingosine(d18:1) delivery system, HE-stained left lung section, vs NC group
# Source text: as §1
# as §2, with “HQi-sRNA-2.” for “HQi-sRNA-2 and sphingosine(d18:1).”
# as §3
# Each mouse with a uniform body weight was dosed by gavage. Each mouse was given 10 nmol of HQi-sRNA-2 mimic daily by gavage for one month.
# The lungs of mice were collected to prepare pathological sections. The left lung was collected and sliced at the largest surface for every mouse, and stained with HE. The area of tumor in the whole pathological section was counted, the tumor burden was calculated, and statistical analysis was performed.
# as §4
Substance,survival of mice with primary lung cancer [1],cell invasion (H460 cells),tumor burden of mice with primary lung cancer [2]
"MDM-sRNA-39: small RNA derived from Maytenus hookeri, sequence GGGAUUGUAGUUCAAUUGGUCAGAGCACC (listed as RNA, chemistry not given here)",significantly prolonged,inhibits,significantly reduced
"HQi-sRNA-2: small RNA derived from Scutellaria baicalensis, sequence AUGGUUCGAUUCCGGAGAGGG (listed as RNA, chemistry not given here)",significantly prolonged,inhibits,significantly reduced
"MDM-sRNA-163: small RNA derived from Maytenus hookeri, sequence UGACUCUAGUCCGACUUUGUGAAAUGACU (listed as RNA, chemistry not given here)",significantly prolonged,inhibits,significantly reduced
